# Data published in patent US20170158702A1, “MULTIVALENT RAS BINDING COMPOUNDS” (KYRAS THERAPEUTICS, INC., priority 2015, published 2017).
# Counter-ions that a name gives are not always drawn.
# How the values were obtained:
# Type in all cases: cell-based
# [1] = system: NCI-H460; assay: Viability assay with NCI-H460 (CellTiter-Glo cytotoxicity assay, 72 h); conditions: NCI-H460 cell line, 72 h after compounds addition
# Procedure: (§1) NCI-H460 (Epithelial lung tissue; carcinoma; large cell lung cancer) were cultured in RPMI Medium 1640 (Invitrogen-22400105) supplemented with 10% fetal bovine serum (FBS; Invitrogen-10099141). All the cell lines were maintained in a humidified incubator at 37° C. with 5% CO2. Cell culture media and supplements were purchased from Invitrogen, and tissue culture flasks were purchased from Corning, 96-well plates were purchased from Greiner. CellTiter-Glo Luminescent Cell Viability Assay kits were purchased from Promega (Promega-G7573), cells counter Vi-Cell was purchased from Beckman, D300e digital dispenser was purchased from Tecan, detection instrument Envision was purchased from PerkinElmer.
# (§2) Paclitaxel was purchased from SELLECK, test compounds, such as any one of the compounds disclosed herein, attained solubility in DMSO and when diluted into culture media. DMSO, solutions containing the test compounds, and culture media were warmed to 37° C. or room temperature for the solution preparation and dilutions.
# (§3) NCI-H460 Cell line were seeded in 96-well plates (1200/well) and allowed to adhere to overnight (100 uL/well), for drug treatments with 2 fold dilution, 9 dose points, triplicates or vehicle control, compound stock solutions were prepared in DMSO and use D300e digital dispenser to add compounds to the wells to give the indicated final drug concentrations. Final DMSO concentration was 0.5%. Cellular ATP concentrations were assessed by using the CellTiter-Glo Cell Viability Assay as per the manufacturer's instructions 72 h after compounds addition. Additional cells lines were assayed with any one of the compounds disclosed herein according to the procedures described for the viability assay with NCI-H460.
# [2] = system: MIA PaCa-2; assay: Viability assay with MIA PaCa-2; conditions: MIA PaCa-2, viability assay per Example 57
# Procedure: as §1, §2, §3
# A viability assay with MIA PaCa-2 (Epithelial pancreas tissue; carcinoma) was performed with compounds listed in Table 15, according to the procedures described in Example 57.
# [3] = system: HT-29; assay: Viability assay with HT-29; conditions: HT-29, viability assay per Example 57
# Procedure: as §1, §2, §3
# A viability assay with HT-29 (Colorectal adenocarcinoma) was performed with compounds listed in Table 18 according to the procedures described in Example 57.
Structure (SMILES),EC50 [1],EC50 [2],EC50 [3]
COc1cccc(CN2CCN(Cc3ccc4c(c3)c(-c3ccc(OC(F)(F)F)cc3CN)cn4C3CCNCC3)CC2)c1 [C274; HCl],≤ 5 µM,≤ 5 µM,≤ 5 µM
NCCCn1cc(-c2cccc(CO)c2)c2cc(CN3CCN(Cc4ccccc4Cl)CC3)ccc21 [C152; HCl],≤ 5 µM,≤ 5 µM,≤ 5 µM
COc1ccc(-c2cn(CCCN)c3ccc(CN4CCN(Cc5ccccc5Cl)CC4)cc23)c(CN)c1 [C222; HCl],≤ 5 µM,≤ 5 µM,≤ 5 µM
FC(F)(F)Oc1ccc(-c2cn(CCCNc3ccccn3)c3ccc(CN4CCN(Cc5ccccc5Cl)CC4)cc23)cc1 [C208; Formic Acid],≤ 5 µM,5 to 10 µM,5 to 10 µM
NCc1cc(OC(F)(F)F)ccc1-c1cn(CCCNC(=O)C2(N)CCNCC2)c2ccc(CN3CCN(Cc4ccccc4Cl)CC3)cc12 [C264; HCl],5 to 10 µM,5 to 10 µM,5 to 10 µM
COc1cnc(-c2cn(CCCN)c3ccc(CN4CCN(Cc5ccccc5Cl)CC4)cc23)nc1 [C204; HCl],≤ 5 µM,≤ 5 µM,≤ 5 µM
COc1ccc(-c2cn(CCCN)c3ccc(CN4CCN(Cc5ccccc5Cl)CC4)cc23)nc1 [C196; HCl],≤ 5 µM,≤ 5 µM,≤ 5 µM
COc1cccc(C(C)(C)N2CCN(Cc3ccc4c(c3)c(-c3ccc(OC(F)(F)F)cc3CN)cn4CCCN)CC2)c1 [C283; HCl],≤ 5 µM,≤ 5 µM,≤ 5 µM
CN(CCN(C)C(=O)c1ccc2c(c1)c(-c1ccc(OC(F)(F)F)cc1)cn2CCCN)Cc1ccccc1Cl [C193; HCl],≤ 5 µM,≤ 5 µM,≤ 5 µM
NCCCn1cc(-c2ccc(OC(F)(F)F)cc2CN)c2cc(CN3CCC(Nc4ccccc4Cl)CC3)ccc21 [C241; HCl],≤ 5 µM,≤ 5 µM,≤ 5 µM
NCCCn1nc2ccc(CN3CCN(Cc4ccccc4Cl)CC3)cc2c1-c1ccc(OC(F)(F)F)cc1 [C182; HCl],≤ 5 µM,≤ 5 µM,≤ 5 µM
Cn1nccc1CN1CCN(Cc2ccc3c(c2)c(-c2ccc(OC(F)(F)F)cc2)cn3CCCN)CC1 [C128; HCl],≤ 5 µM,≤ 5 µM,≤ 5 µM
COc1ccc(-c2cn(CCCN)c3ccc(CN4CCN(Cc5ccccc5Cl)CC4)cc23)c(CN(C)C)c1 [C284; HCl],≤ 5 µM,≤ 5 µM,≤ 5 µM
NCc1cc(-n2cc(-c3ccc(OC(F)(F)F)cc3)c3cc(CN4CCN(Cc5ccccc5Cl)CC4)ccc32)ccn1 [C229; Formic Acid],≤ 5 µM,≤ 5 µM,≤ 5 µM
NCCCn1cc(-c2ccc(CCN)cc2)c2cc(CN3CCN(Cc4ccccc4Cl)CC3)ccc21 [C188; HCl],5 to 10 µM,5 to 10 µM,5 to 10 µM
NCCCn1cc(-c2ccc(OC(F)(F)F)cc2)c2cc(CN3CCS(=O)(=O)CC3)ccc21 [C292; Formic Acid],≤ 5 µM,≤ 5 µM,5 to 10 µM
COc1cccc(OC2CCN(Cc3ccc4c(c3)c(-c3ccc(OC(F)(F)F)cc3CN)cn4CCCN)CC2)c1 [C280; HCl],≤ 5 µM,≤ 5 µM,≤ 5 µM
NCCCn1cc(-c2ccc(OC(F)(F)F)cc2)c2cc(CN3CCC(Nc4cccc(Cl)c4)CC3)ccc21 [C214; Formic Acid],≤ 5 µM,≤ 5 µM,≤ 5 µM
NCCCn1cc(-c2ccc(OC(F)(F)F)cc2CN)c2cc(CN3CCC(Nc4cccc(Cl)c4)CC3)ccc21 [C247; HCl],≤ 5 µM,≤ 5 µM,≤ 5 µM
NCCCn1cc(-c2ccc(OC(F)(F)F)cc2CN)c2cc(CN3CCNC(=O)C3)ccc21 [C258; Formic Acid],5 to 10 µM,5 to 10 µM,5 to 10 µM
NCCCn1cc(-c2ccccc2CCN)c2cc(CN3CCN(Cc4ccccc4Cl)CC3)ccc21 [C131; HCl],–,–,≤ 5 µM
